# Source: patent publication US12534457B2, “Heteroaryl derivative compounds, and uses thereof” (Voronoi Inc., priority 2021, dated 2026)
# System: Ba/F3 cells expressing EGFR Del19/C797S (EGFR DC)
# Experiment: Proliferation inhibitory activity, Ba/F3 cells expressing EGFR Del19/C797S (CellTiter-Glo)
# Type: cell-based
# Details: Mus musculus, BaF3, 72 hours of compound treatment
# Procedure: The following experiments were performed to evaluate the inhibitory activity of the compounds according to the present disclosure on Ba/F3 proliferation expressing EGFR C797S, L861Q, G719A, S768I, L718Q, and/or G724S mutations.
# For Ba/F3 cells, RPMI-1640 containing 10% FBS and 5 ng/ml IL-3 (R&D Systems) was used. Transduced Ba/F3 cells were cultured after adding 1 μg/ml puromycin (Invitrogen) to the same medium.
# At 24 hours before treatment with the compounds, 3000 to 5000 cells were aliquoted into each well of a white clear bottom 96 well plate (Corning). The compounds were diluted in dimethyl sulfoxide (3 times dilution, 12 concentrations in total), and injected in an amount of 1 μl so that the final concentration was 0.2 nM to 5 uM. For measurement of living cells, after 72 hours of compound treatment, the cells were stored at room temperature for 10 min using CellTiter-Glo luminescentcell-viability reagent (Promega), and then luminescence intensity was measured using a reader (SynergyNeo, Biotek). Each test was repeated three times. Result values were calculated as the cell growth rate (%) compared to the control. The graphs were created using GraphPad Prism version 8.3.0 program and the GI50 values were calculated.
row,SMILES,GI50 [nM]
1,"COc1cc(N2CCC(N3CCN4CCCC4C3)CC2)c(NC(=O)CCCl)cc1Nc1cc(N2OCC[C@@H]2c2cc(F)cc(F)c2)ncn1 (stereo partly drawn) [Example 86, 3-chloro-N-(5-((6-((R)-3-(3,5-difluorophenyl)isoxazolidin-2-yl)pyrimidin-4-yl)amino)-2-(4-(hexahydropyrrolo[1,2-a]pyrazin-2 (1H)-yl)piperidin-1-yl)-4-methoxyphenyl)propanamide]",< 50
2,"CCC(=O)Nc1cc(Nc2cc(N3OCC[C@@H]3c3ccc(F)cc3F)ncn2)c(OC)cc1N1CCC(N2CCC(N3CCN(C)CC3)CC2)CC1 [Example 87, (R)—N-(5-((6-(3-(2,4-difluorophenyl)isoxazolidin-2-yl)pyrimidin-4-yl)amino)-4-methoxy-2-(4-(4-methylpiperazin-1-yl)-[1,4′-bipiperidin]-1′-yl)phenyl)propionamide]",< 50
3,"COc1cc(N2CCC3(CC2)CC(N(C)C)C3)c(C)cc1Nc1cc(N2OCC[C@@H]2c2ccccc2)ncn1 [Example 88, (R)-7-(5-methoxy-2-methyl-4-((6-(3-phenylisoxazolidin-2-yl)pyrimidin-4-yl)amino)phenyl)-N,N-dimethyl-7-azaspiro[3.5]nonan-2-amine]",< 50
4,"COc1cc(N2CCC(N3CCN(C)CC3)CC2)ccc1Nc1cc(N2OCC[C@@H]2c2ccc3ccccc3c2)ncn1 [Example 89, (R)—N-(2-methoxy-4-(4-(4-methylpiperazin-1-yl)piperidin-1-yl)phenyl)-6-(3-(naphthalen-2-yl)isoxazolidin-2-yl)pyrimidin-4-amine]",50 to 500
5,"CCc1cc(Nc2cc(N3OCC[C@@H]3c3ccc(F)cc3)ncn2)c(OC)cc1N1CCC(N2CCN(C)CC2)CC1 [Example 91, (R)—N-(5-ethyl-2-methoxy-4-(4-(4-methylpiperazin-1-yl)piperidin-1-yl)phenyl)-6-(3-(4-fluorophenyl)isoxazolidin-2-yl)pyrimidin-4-amine]",< 50
6,"CCc1cc(Nc2cc(N3OCC[C@@H]3c3ccc(F)cc3F)ncn2)c(OC)cc1N1CCC(N2CCN(C)CC2)CC1 [Example 93, (R)-6-(3-(2,4-difluorophenyl)isoxazolidin-2-yl)-N-(5-ethyl-2-methoxy-4-(4-(4-methylpiperazin-1-yl)piperidin-1-yl)phenyl)pyrimidin-4-amine]",< 50
7,"CCc1cc(Nc2cc(N3OCC[C@@H]3c3cc(F)ccc3F)ncn2)c(OC)cc1N1CCC(N2CCN(C)CC2)CC1 [Example 94, (R)-6-(3-(2,5-difluorophenyl)isoxazolidin-2-yl)-N-(5-ethyl-2-methoxy-4-(4-(4-methylpiperazin-1-yl)piperidin-1-yl)phenyl)pyrimidin-4-amine]",< 50
8,"COc1cc(Nc2cc(N3OCC[C@@H]3c3ccc(F)cc3)ncn2)ccc1N1CCC(N2CCN(C)CC2)CC1 [Example 96, (R)-6-(3-(4-fluorophenyl)isoxazolidin-2-yl)-N-(3-methoxy-4-(4-(4-methylpiperazin-1-yl)piperidin-1-yl)phenyl)pyrimidin-4-amine]",< 50
9,"CCN(CC)C1CCN(c2ccc(Nc3cc(N4OCC[C@@H]4c4ccccc4)ncn3)c(OC)c2)CC1 [Example 98, (R)—N-(4-(4-(diethylamino)piperidin-1-yl)-2-methoxyphenyl)-6-(3-phenylisoxazolidin-2-yl)pyrimidin-4-amine]",< 50
10,"COc1cc(N2CCN(C3CCN(C)CC3)C[C@H]2C)ccc1Nc1cc(N2OCC[C@@H]2c2ccccc2)ncn1 [Example 99, N-(2-methoxy-4-((R)-2-methyl-4-(1-methylpiperidin-4-yl)piperazin-1-yl)phenyl)-6-((R)-3-phenylisoxazolidin-2-yl)pyrimidin-4-amine]",< 50
11,"COc1cc(N2CCC(N3CCN(C)CC3)CC2)ccc1Nc1cc(N2OCC[C@@H]2c2cccc(C(=O)OC(C)C)c2)ncn1 [Example 100, isopropyl (R)-3-(2-(6-((2-methoxy-4-(4-(4-methylpiperazin-1-yl)piperidin-1-yl)phenyl)amino)pyrimidin-4-yl)isoxazolidin-3-yl)benzoate]",50 to 500
12,"COc1cc(N2CCN(C3CCN(C)CC3)CC2)ccc1Nc1cc(N2OCC[C@@H]2c2ccccc2)ncn1 [Example 101, (R)—N-(2-methoxy-4-(4-(1-methylpiperidin-4-yl)piperazin-1-yl)phenyl)-6-(3-phenylisoxazolidin-2-yl)pyrimidin-4-amine]",< 50
13,"COc1cc(Nc2cc(N3OCC[C@@H]3c3ccc(Cl)cc3F)ncn2)ccc1N1CCC(N2CCN(C)CC2)CC1 [Example 105, (R)-6-(3-(4-chloro-2-fluorophenyl)isoxazolidin-2-yl)-N-(3-methoxy-4-(4-(4-methylpiperazin-1-yl)piperidin-1-yl)phenyl)pyrimidin-4-amine]",< 50
14,"COc1cc(Nc2cc(N3OCC[C@@H]3c3cc(F)ccc3F)ncn2)ccc1N1CCC(N2CCN(C)CC2)CC1 [Example 106, (R)-6-(3-(2,5-difluorophenyl)isoxazolidin-2-yl)-N-(3-methoxy-4-(4-(4-methylpiperazin-1-yl)piperidin-1-yl)phenyl)pyrimidin-4-amine]",< 50
15,"Cc1cc(Nc2cc(N3OCC[C@@H]3c3ccccc3)ncn2)ccc1N1CCN(C)CC1 [Example 107, (R)—N-(3-methyl-4-(4-methylpiperazin-1-yl)phenyl)-6-(3-phenylisoxazolidin-2-yl)pyrimidin-4-amine]",< 50
16,"Cc1cc(N2CCOCC2)ccc1Nc1cc(N2OCC[C@@H]2c2ccccc2)ncn1 [Example 108, (R)—N-(2-methyl-4-morpholinophenyl)-6-(3-phenylisoxazolidin-2-yl)pyrimidin-4-amine]",< 50
17,"COc1cc(N2CCC(N3CCN(C)CC3)CC2)ccc1Nc1ncnc(N2OCC[C@@H]2c2ccccc2)n1 [Example 112, (R)—N-(2-methoxy-4-(4-(4-methylpiperazin-1-yl)piperidin-1-yl)phenyl)-4-(3-phenylisoxazolidin-2-yl)-1,3,5-triazin-2-amine]",50 to 500
18,"COc1cc(N2CCC(N3CCN(C)CC3)CC2)c(C)cc1Nc1cc(N2OCC[C@@H]2c2ccccc2)ncn1 [Example 114, (R)—N-(2-methoxy-5-methyl-4-(4-(4-methylpiperazin-1-yl)piperidin-1-yl)phenyl)-6-(3-phenylisoxazolidin-2-yl)pyrimidin-4-amine]",< 50

# Second part, the molecule after the results:
row,GI50 [nM],SMILES
1,< 50,"COc1cc(N2CCC(N3CCN(C)CC3)CC2)ccc1Nc1cc(N2OCC[C@@H]2c2ccc(F)c(F)c2)ncn1 [Example 90, (R)-6-(3-(3,4-difluorophenyl)isoxazolidin-2-yl)-N-(2-methoxy-4-(4-(4-methylpiperazin-1-yl)piperidin-1-yl)phenyl)pyrimidin-4-amine]"
2,< 50,"CCc1cc(Nc2cc(N3OCC[C@@H]3c3cccc(F)c3F)ncn2)c(OC)cc1N1CCC(N2CCN(C)CC2)CC1 [Example 92, (R)-6-(3-(2,3-difluorophenyl)isoxazolidin-2-yl)-N-(5-ethyl-2-methoxy-4-(4-(4-methylpiperazin-1-yl)piperidin-1-yl)phenyl)pyrimidin-4-amine]"
3,< 50,"COc1cc(Nc2cc(N3OCC[C@@H]3c3ccc(F)cc3F)ncn2)ccc1N1CCC(N2CCN(C)CC2)CC1 [Example 95, (R)-6-(3-(2,4-difluorophenyl)isoxazolidin-2-yl)-N-(3-methoxy-4-(4-(4-methylpiperazin-1-yl)piperidin-1-yl)phenyl)pyrimidin-4-amine]"
4,< 50,"COc1cc(N2CCC(N3C[C@H]4C[C@@H]3CO4)CC2)ccc1Nc1cc(N2OCC[C@@H]2c2ccccc2)ncn1 [Example 97, N-(4-(4-((1R,4R)-2-oxa-5-azabicyclo[2.2.1]heptan-5-yl)piperidin-1-yl)-2-methoxyphenyl)-6-((R)-3-phenylisoxazolidin-2-yl)pyrimidin-4-amine]"
5,< 50,"Cc1cc(Nc2cc(N3OCC[C@@H]3c3cc(F)ccc3F)ncn2)ccc1N1CCC(N2CCN(C)CC2)CC1 [Example 103, (R)-6-(3-(2,5-difluorophenyl)isoxazolidin-2-yl)-N-(3-methyl-4-(4-(4-methylpiperazin-1-yl)piperidin-1-yl)phenyl)pyrimidin-4-amine]"
6,< 50,"CCc1cc(Nc2cc(N3OCC[C@@H]3c3ccccc3)ncn2)c(OC)cc1N1CCC(N2CCN(C)CC2)CC1 [Example 109, (R)—N-(5-ethyl-2-methoxy-4-(4-(4-methylpiperazin-1-yl)piperidin-1-yl)phenyl)-6-(3-phenylisoxazolidin-2-yl)pyrimidin-4-amine]"
7,< 50,"COc1cc(N2CCOCC2)ccc1Nc1cc(N2OCC[C@@H]2c2ccccc2)ncn1 [Example 110, (R)—N-(2-methoxy-4-morpholinophenyl)-6-(3-phenylisoxazolidin-2-yl)pyrimidin-4-amine]"
8,50 to 500,"COc1cc(N2CCC(N3CCN(C)CC3)CC2)ccc1Nc1cc(N2OCC[C@@H]2c2ccccc2)nc(N)n1 [Example 111, (R)—N4-(2-methoxy-4-(4-(4-methylpiperazin-1-yl)piperidin-1-yl)phenyl)-6-(3-phenylisoxazolidin-2-yl)pyrimidin-2,4-diamine]"
9,< 50,"COc1cc(NC2CCN(C)CC2)ccc1Nc1cc(N2OCC[C@@H]2c2ccccc2)ncn1 [Example 113, (R)-2-methoxy-N4-(1-methylpiperidin-4-yl)-N1-(6-(3-phenylisoxazolidin-2-yl)pyrimidin-4-yl)benzene-1,4-diamine]"
10,< 50,"COc1cc(N2CCC(N3CCC(N(C)C)CC3)CC2)ccc1Nc1cc(N2OCC[C@@H]2c2ccccc2)ncn1 [Example 115, (R)-1′-(3-methoxy-4-((6-(3-phenylisoxazolidin-2-yl)pyrimidin-4-yl)amino)phenyl)-N,N-dimethyl-[1,4′-bipiperidin]-4-amine]"
